Patent US10738028B2, “Spiro three-membered ring, spiro five-membered ring peptide deformylase inhibitor and use thereof in antibacteria and anti-tumor” (priority 2016, dated 2020)

Key:
Type in all cases: cell-based
[1] = tested on: Enterococcus faecalis (EFA); assay: MIC, two-fold agar dilution (CLSI), clinical isolates; settings: for Anti-bacterial activity (MIC), strain EFA 15-1: clinical isolate EFA 15-1; for Anti-bacterial activity (MIC), strain EFA 15-2: clinical isolate EFA 15-2; for Anti-bacterial activity (MIC), strain EFA 15-3: clinical isolate EFA 15-3; for Anti-bacterial activity (MIC), strain EFA 15-4: clinical isolate EFA 15-4; for Anti-bacterial activity (MIC), strain EFA 15-5: clinical isolate EFA 15-5; for Anti-bacterial activity (MIC), strain EFA 15-6: clinical isolate EFA 15-6; for Anti-bacterial activity (MIC), strain EFA 15-9: clinical isolate EFA 15-9
Method in brief: (§1)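 Following the American Clinical and Laboratory Standards Institute procedure, agar two-fold dilution served to determine minimum inhibitory concentrations.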

[2] = tested on: Enterococcus faecium (EFM); assay: as above; settings: for Anti-bacterial activity (MIC), strain EFM 15-1: clinical isolate EFM 15-1; for Anti-bacterial activity (MIC), strain EFM 15-2: clinical isolate EFM 15-2; for Anti-bacterial activity (MIC), strain EFM 15-3: clinical isolate EFM 15-3; for Anti-bacterial activity (MIC), strain EFM 15-4: clinical isolate EFM 15-4; for Anti-bacterial activity (MIC), strain EFM 15-5: clinical isolate EFM 15-5; for Anti-bacterial activity (MIC), strain EFM 15-6: clinical isolate EFM 15-6
Method in brief: as §1

[3] = tested on: Escherichia coli (including ESBLs, non-ESBLs); assay: as above; settings: for Anti-bacterial activity (MIC), strain ECO+ 15-1: clinical isolate ECO+ 15-1; for Anti-bacterial activity (MIC), strain ECO+ 15-2: clinical isolate ECO+ 15-2; for Anti-bacterial activity (MIC), strain ECO+ 15-3: clinical isolate ECO+ 15-3; for Anti-bacterial activity (MIC), strain ECO+ 15-4: clinical isolate ECO+ 15-4; for Anti-bacterial activity (MIC), strain ECO− 15-1: clinical isolate ECO− 15-1; for Anti-bacterial activity (MIC), strain ECO− 15-2: clinical isolate ECO− 15-2; for Anti-bacterial activity (MIC), strain ECO− 15-3: clinical isolate ECO− 15-3; for Anti-bacterial activity (MIC), strain ECO− 15-4: clinical isolate ECO− 15-4
Method in brief: as §1

[4] = tested on: Moraxella catarrhalis (BCA); assay: as above; settings: for Anti-bacterial activity (MIC), strain BCA 14-1: clinical isolate BCA 14-1; for Anti-bacterial activity (MIC), strain BCA 14-4: clinical isolate BCA 14-4; for Anti-bacterial activity (MIC), strain BCA 14-5: clinical isolate BCA 14-5; for Anti-bacterial activity (MIC), strain BCA 14-6: clinical isolate BCA 14-6; for Anti-bacterial activity (MIC), strain BCA 14-7: clinical isolate BCA 14-7; for Anti-bacterial activity (MIC), strain BCA 14-8: clinical isolate BCA 14-8; for Anti-bacterial activity (MIC), strain BCA 14-10: clinical isolate BCA 14-10
Method in brief: as §1

[5] = tested on: Streptococcus pneoumoniae (SPN); assay: as above; settings: for Anti-bacterial activity (MIC), strain SPN 16-2: clinical isolate SPN 16-2; for Anti-bacterial activity (MIC), strain SPN 16-4: clinical isolate SPN 16-4
Method in brief: as §1

[6] = tested on: methicillin-resistant Staphylococcus aureus (MRSA); assay: as above; settings: for Anti-bacterial activity (MIC), strain MRSA 15-1: clinical isolate MRSA 15-1; for Anti-bacterial activity (MIC), strain MRSA 15-2: clinical isolate MRSA 15-2; for Anti-bacterial activity (MIC), strain MRSA 15-3: clinical isolate MRSA 15-3; for Anti-bacterial activity (MIC), strain MRSA 15-4: clinical isolate MRSA 15-4
Method in brief: as §1

[7] = tested on: methicillin-resistant Staphylococcus epidermidis (MRSE); assay: as above; settings: for Anti-bacterial activity (MIC), strain MRSE 15-1: clinical isolate MRSE 15-1; for Anti-bacterial activity (MIC), strain MRSE 15-2: clinical isolate MRSE 15-2; for Anti-bacterial activity (MIC), strain MRSE 15-3: clinical isolate MRSE 15-3; for Anti-bacterial activity (MIC), strain MRSE 15-7: clinical isolate MRSE 15-7
Method in brief: as §1

[8] = tested on: methicillin-sensitive Staphylococcus aureus (MSSA); assay: as above; settings: for Anti-bacterial activity (MIC), strain MSSA 15-3: clinical isolate MSSA 15-3; for Anti-bacterial activity (MIC), strain MSSA 15-4: clinical isolate MSSA 15-4; for Anti-bacterial activity (MIC), strain MSSA 15-5: clinical isolate MSSA 15-5; for Anti-bacterial activity (MIC), strain MSSA 15-6: clinical isolate MSSA 15-6
Method in brief: as §1

[9] = tested on: methicillin-sensitive Staphylococcus epidermidis (MSSE); assay: as above; settings: for Anti-bacterial activity (MIC), strain MSSE 15-3: clinical isolate MSSE 15-3; for Anti-bacterial activity (MIC), strain MSSE 15-4: clinical isolate MSSE 15-4; for Anti-bacterial activity (MIC), strain MSSE 15-5: clinical isolate MSSE 15-5; for Anti-bacterial activity (MIC), strain MSSE 15-6: clinical isolate MSSE 15-6
Method in brief: as §1

[10] = tested on: HCT-116 colorectal cancer cell line; assay: CCK-8 proliferation inhibition; settings: Homo sapiens, HCT-116, 72 h, concentration of 30 μM; 72 hours; CCK-8; read-out: HCT116 inhibition rate/%
Method in brief: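 Cells were plated overnight at 2000 cells/well, then compound in culture medium was added at a range of final concentrations. After 72 hours in a CO2 incubator, medium was replaced with 1:10 CCK-8 solution for the read-out.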

CCCC[C@H](CC(=O)NO)C(=O)N1CC2(CC2)C[C@H]1C(=O)Nc1ccno1 [Example 54, (S)-5-((R)-2-(2-(hydroxyamino)-2-oxoethyl)hexanoyl)-N-(isoxazol-5-yl)-5-spiro[2.4]heptane-6-carboxamide]
> 32 mg/L: Anti-bacterial activity (MIC), strain EFA 15-1 [1] | Anti-bacterial activity (MIC), strain EFA 15-2 [1] | Anti-bacterial activity (MIC), strain EFA 15-3 [1] | Anti-bacterial activity (MIC), strain EFA 15-4 [1] | Anti-bacterial activity (MIC), strain EFA 15-5 [1] | Anti-bacterial activity (MIC), strain EFA 15-6 [1] | Anti-bacterial activity (MIC), strain EFM 15-1 [2] | Anti-bacterial activity (MIC), strain EFM 15-2 [2] | Anti-bacterial activity (MIC), strain EFM 15-3 [2] | Anti-bacterial activity (MIC), strain EFM 15-4 [2] | Anti-bacterial activity (MIC), strain ECO+ 15-1 [3] | Anti-bacterial activity (MIC), strain ECO+ 15-2 [3] | Anti-bacterial activity (MIC), strain ECO+ 15-3 [3] | Anti-bacterial activity (MIC), strain ECO+ 15-4 [3] | Anti-bacterial activity (MIC), strain ECO− 15-1 [3] | Anti-bacterial activity (MIC), strain ECO− 15-2 [3] | Anti-bacterial activity (MIC), strain ECO− 15-3 [3] | Anti-bacterial activity (MIC), strain ECO− 15-4 [3] | Anti-bacterial activity (MIC), strain BCA 14-1 [4] | Anti-bacterial activity (MIC), strain BCA 14-4 [4] | Anti-bacterial activity (MIC), strain BCA 14-6 [4] | Anti-bacterial activity (MIC), strain BCA 14-7 [4] | Anti-bacterial activity (MIC), strain BCA 14-8 [4] | Anti-bacterial activity (MIC), strain BCA 14-10 [4] | Anti-bacterial activity (MIC), strain MRSA 15-1 [6] | Anti-bacterial activity (MIC), strain MRSA 15-2 [6] | Anti-bacterial activity (MIC), strain MRSA 15-3 [6] | Anti-bacterial activity (MIC), strain MRSA 15-4 [6] | Anti-bacterial activity (MIC), strain MRSE 15-1 [7] | Anti-bacterial activity (MIC), strain MRSE 15-2 [7] | Anti-bacterial activity (MIC), strain MRSE 15-3 [7] | Anti-bacterial activity (MIC), strain MRSE 15-7 [7] | Anti-bacterial activity (MIC), strain MSSA 15-3 [8] | Anti-bacterial activity (MIC), strain MSSA 15-4 [8] | Anti-bacterial activity (MIC), strain MSSA 15-5 [8] | Anti-bacterial activity (MIC), strain MSSA 15-6 [8] | Anti-bacterial activity (MIC), strain MSSE 15-3 [9] | Anti-bacterial activity (MIC), strain MSSE 15-4 [9] | Anti-bacterial activity (MIC), strain MSSE 15-5 [9] | Anti-bacterial activity (MIC), strain MSSE 15-6 [9]
8%: inhibition at 30 µM [10]
4 mg/L: Anti-bacterial activity (MIC), strain SPN 16-2 [5] | Anti-bacterial activity (MIC), strain SPN 16-4 [5]
2 mg/L: Anti-bacterial activity (MIC), strain EFM 15-5 [2]
8 mg/L: Anti-bacterial activity (MIC), strain EFM 15-6 [2]
32 mg/L: Anti-bacterial activity (MIC), strain EFA 15-9 [1] | Anti-bacterial activity (MIC), strain BCA 14-5 [4]

CCCC[C@H](CC(=O)NO)C(=O)N1CC2(CC2)C[C@H]1C(=O)Nc1cc(C)on1 [Example 56, (S)-5-((R)-2-(2-(hydroxyamino)-2-oxoethyl)hexanoyl)-N-(5-methylisoxazol-3-yl)-5-spiro[2.4]heptane-6-carboxamide]
2 mg/L: Anti-bacterial activity (MIC), strain BCA 14-7 [4] | Anti-bacterial activity (MIC), strain BCA 14-8 [4] | Anti-bacterial activity (MIC), strain BCA 14-10 [4] | Anti-bacterial activity (MIC), strain MRSA 15-2 [6] | Anti-bacterial activity (MIC), strain MRSA 15-4 [6] | Anti-bacterial activity (MIC), strain MRSE 15-2 [7]
1 mg/L: Anti-bacterial activity (MIC), strain EFM 15-1 [2] | Anti-bacterial activity (MIC), strain EFM 15-3 [2] | Anti-bacterial activity (MIC), strain EFM 15-5 [2] | Anti-bacterial activity (MIC), strain BCA 14-5 [4] | Anti-bacterial activity (MIC), strain SPN 16-4 [5]
16 mg/L: Anti-bacterial activity (MIC), strain EFA 15-1 [1] | Anti-bacterial activity (MIC), strain EFA 15-2 [1] | Anti-bacterial activity (MIC), strain EFA 15-3 [1] | Anti-bacterial activity (MIC), strain EFA 15-4 [1] | Anti-bacterial activity (MIC), strain EFA 15-5 [1] | Anti-bacterial activity (MIC), strain EFA 15-6 [1] | Anti-bacterial activity (MIC), strain EFA 15-9 [1]
0.25 mg/L: Anti-bacterial activity (MIC), strain MRSA 15-1 [6] | Anti-bacterial activity (MIC), strain MRSE 15-3 [7] | Anti-bacterial activity (MIC), strain MSSA 15-3 [8] | Anti-bacterial activity (MIC), strain MSSA 15-4 [8] | Anti-bacterial activity (MIC), strain MSSA 15-6 [8] | Anti-bacterial activity (MIC), strain MSSE 15-3 [9]
8 mg/L: Anti-bacterial activity (MIC), strain BCA 14-6 [4] | Anti-bacterial activity (MIC), strain SPN 16-2 [5]
10%: inhibition at 30 µM [10]
> 16 mg/L: Anti-bacterial activity (MIC), strain ECO+ 15-1 [3] | Anti-bacterial activity (MIC), strain ECO+ 15-2 [3] | Anti-bacterial activity (MIC), strain ECO+ 15-3 [3] | Anti-bacterial activity (MIC), strain ECO+ 15-4 [3] | Anti-bacterial activity (MIC), strain ECO− 15-1 [3] | Anti-bacterial activity (MIC), strain ECO− 15-2 [3] | Anti-bacterial activity (MIC), strain ECO− 15-3 [3] | Anti-bacterial activity (MIC), strain ECO− 15-4 [3]
0.06 mg/L: Anti-bacterial activity (MIC), strain MSSE 15-4 [9] | Anti-bacterial activity (MIC), strain MSSE 15-5 [9] | Anti-bacterial activity (MIC), strain MSSE 15-6 [9]
4 mg/L: Anti-bacterial activity (MIC), strain EFM 15-2 [2] | Anti-bacterial activity (MIC), strain EFM 15-4 [2] | Anti-bacterial activity (MIC), strain EFM 15-6 [2] | Anti-bacterial activity (MIC), strain BCA 14-1 [4] | Anti-bacterial activity (MIC), strain BCA 14-4 [4]
0.5 mg/L: Anti-bacterial activity (MIC), strain MRSA 15-3 [6] | Anti-bacterial activity (MIC), strain MRSE 15-7 [7]
0.125 mg/L: Anti-bacterial activity (MIC), strain MRSE 15-1 [7] | Anti-bacterial activity (MIC), strain MSSA 15-5 [8]
